Experimental data reported in ChEMBL document CHEMBL5104180, “Design, Synthesis, and Evaluation of New Sugar-Substituted Imidazole Derivatives as Selective c-MYC Transcription Repressors Targeting the Promoter G-Quadruplex” (J Med Chem, 2022).
Blank lines part the entries; values can stand above or below the compound they belong to.

Key:
Quadruplex DNA [1] = assay: Stabilization of c-MYC G4 quadruplex DNA Pu22 (unknown origin) assessed as change in melting temperature at 2 uM by CD spectroscopy; assay type: nucleic-acid assay
RNA = assay: Binding affinity to NRAS RNA mutant (unknown origin) assessed as binding constant by SPR analysis
Quadruplex DNA [2] = assay: Binding affinity to c-MYC G4 quadruplex DNA Pu22 (unknown origin) assessed as binding constant by SPR analysis; assay type: nucleic-acid assay
[3] = Binding affinity to human G-rich Htg22 DNA assessed as binding constant by SPR analysis
[4] = Binding affinity to G-rich KRAS DNA (unknown origin) assessed as binding constant by SPR analysis
[5] = Binding affinity to G-rich HRAS DNA (unknown origin) assessed as binding constant by SPR analysis
Quadruplex DNA [6] = assay: Binding affinity to c-MYC G4- quadruplex DNA Pu22 (unknown origin) assessed as binding constant by SPR analysis; assay type: nucleic-acid assay
[7] = Binding affinity to Hairpin DNA (unknown origin) assessed as binding constant by SPR analysis
[8] = Binding affinity to G-rich NRAS RNA (unknown origin) assessed as binding constant by SPR analysis

SMILES: CCn1c2ccccc2c2cc(-c3nc(-c4ccc(N5CCN(C)CC5)cc4)c(-c4ccc(N5CCN(C)CC5)cc4)n3CCOCCO[C@H]3OC(CO)C(O)[C@@H](O)[C@@H]3O)ccc21 (single isomer, unassigned)
ΔTm (Quadruplex DNA [1]): 14.9 °C

SMILES: CCn1c2ccccc2c2cc(-c3nc(-c4ccc(N5CCN(C)CC5)cc4)c(-c4ccc(N5CCN(C)CC5)cc4)n3-c3ccc(OCCCO)cc3)ccc21
ΔTm (Quadruplex DNA [1]): 9.2 °C

SMILES: COc1ccc(-n2c(-c3ccc4c(c3)c3ccccc3n4Cc3cn([C@@H]4O[C@H](CO)[C@@H](O)[C@H](O)[C@H]4O)nn3)nc(-c3ccc(N4CCN(C)CC4)cc3)c2-c2ccc(N3CCN(C)CC3)cc2)cc1 (single isomer, unassigned)
ΔTm (Quadruplex DNA [1]): 10.3 °C

SMILES: CCn1c2ccccc2c2cc(-c3nc(-c4ccc(N5CCN(C)CC5)cc4)c(-c4ccc(N5CCN(C)CC5)cc4)n3-c3ccc(O[C@@H]4O[C@H](CO)[C@@H](O)[C@H](O)[C@H]4O)cc3)ccc21
Kd (RNA): > 20 µM
Kd (Quadruplex DNA [2]): > 20 µM
Kd [3]: > 20 µM
Kd [4]: 12.5 µM
Kd [5]: 6.8 µM
ΔTm (Quadruplex DNA [1]): 15.5 °C
Kd (Quadruplex DNA [6]): 1.8 µM
Kd [7]: > 20 µM
Kd [8]: 16.9 µM

SMILES: CCn1c2ccccc2c2cc(-c3nc(-c4ccc(N5CCN(C)CC5)cc4)c(-c4ccc(N5CCN(C)CC5)cc4)n3CCO[C@@H]3O[C@H](CO)[C@@H](O)[C@H](O)[C@H]3O)ccc21 (single isomer, unassigned)
ΔTm (Quadruplex DNA [1]): 14.7 °C

SMILES: CCn1c2ccccc2c2cc(-c3nc(-c4ccc(N5CCN(C)CC5)cc4)c(-c4ccc(N5CCN(C)CC5)cc4)n3-c3ccc(O[C@@H]4O[C@H](COC(C)=O)[C@@H](OC(C)=O)[C@H](OC(C)=O)[C@H]4OC(C)=O)cc3)ccc21 (single isomer, unassigned)
ΔTm (Quadruplex DNA [1]): 10.7 °C

SMILES: CCn1c2ccccc2c2cc(-c3nc(-c4ccc(N5CCN(C)CC5)cc4)c(-c4ccc(N5CCN(Cc6cn(CCOCCO[C@@H]7O[C@H](CO)[C@@H](O)[C@H](O)[C@H]7O)nn6)CC5)cc4)[nH]3)ccc21 (single isomer, unassigned)
Kd (RNA): > 20 µM
Kd (Quadruplex DNA [2]): > 20 µM
Kd [3]: > 20 µM
Kd [4]: 4.8 µM
Kd [5]: 2.5 µM
ΔTm (Quadruplex DNA [1]): 19.2 °C
Kd (Quadruplex DNA [6]): 1.7 µM
Kd [7]: > 20 µM
Kd [8]: 11.7 µM

SMILES: CCn1c2ccccc2c2cc(-c3nc(-c4ccc(N5CCN(C)CC5)cc4)c(-c4ccc(N5CCN(C)CC5)cc4)n3-c3ccc(OCCOCCOC(C)=O)cc3)ccc21
Kd (RNA): > 20 µM
Kd (Quadruplex DNA [2]): > 20 µM
Kd [3]: > 20 µM
Kd [4]: 10.2 µM
Kd [5]: 19.1 µM
ΔTm (Quadruplex DNA [1]): 21.2 °C
Kd (Quadruplex DNA [6]): 4 µM
Kd [7]: > 20 µM
Kd [8]: > 20 µM

SMILES: CCn1c2ccccc2c2cc(-c3nc(-c4ccc(N5CCN(C)CC5)cc4)c(-c4ccc(N5CCN(C)CC5)cc4)n3CCOCCOC(C)=O)ccc21
ΔTm (Quadruplex DNA [1]): 10.4 °C

SMILES: CCn1c2ccccc2c2cc(-c3nc(-c4ccc(N5CCN(C)CC5)cc4)c(-c4ccc(N5CCN(C)CC5)cc4)n3-c3ccc(OCCOCCO[C@@H]4O[C@H](COC(C)=O)[C@@H](OC(C)=O)[C@H](OC(C)=O)[C@H]4NC(=O)C(F)(F)F)cc3)ccc21 (single isomer, unassigned)
ΔTm (Quadruplex DNA [1]): 14 °C

SMILES: CCn1c2ccccc2c2cc(-c3nc(-c4ccc(N5CCN(C)CC5)cc4)c(-c4ccc(N5CCN(C)CC5)cc4)n3CCO[C@@H]3O[C@H](COC(C)=O)[C@H](OC(C)=O)[C@H](OC(C)=O)[C@H]3OC(C)=O)ccc21 (single isomer, unassigned)
ΔTm (Quadruplex DNA [1]): 9.3 °C

SMILES: CCn1c2ccccc2c2cc(-c3nc(-c4ccc(N5CCN(C)CC5)cc4)c(-c4ccc(N5CCN(C)CC5)cc4)n3-c3ccc(OCCCO[C@@H]4O[C@H](COC(C)=O)[C@H](OC(C)=O)[C@H](OC(C)=O)[C@H]4OC(C)=O)cc3)ccc21 (single isomer, unassigned)
ΔTm (Quadruplex DNA [1]): 10.9 °C

SMILES: CCn1c2ccccc2c2cc(-c3nc(-c4ccc(N5CCN(C)CC5)cc4)c(-c4ccc(N5CCN(C)CC5)cc4)n3-c3ccc(O)cc3)ccc21
ΔTm (Quadruplex DNA [1]): 14.5 °C

SMILES: CCn1c2ccccc2c2cc(-c3nc(-c4ccc(N5CCN(C)CC5)cc4)c(-c4ccc(N5CCN(C)CC5)cc4)n3-c3ccc(OCCOCCO[C@@H]4O[C@H](COC(C)=O)[C@H](OC(C)=O)[C@H](OC(C)=O)[C@H]4OC(C)=O)cc3)ccc21 (single isomer, unassigned)
ΔTm (Quadruplex DNA [1]): 12.8 °C

SMILES: COc1ccc(-n2c(-c3ccc4c(c3)c3ccccc3n4Cc3cn([C@@H]4O[C@H](CO)[C@H](O)[C@H](O)[C@H]4O)nn3)nc(-c3ccc(N4CCN(C)CC4)cc3)c2-c2ccc(N3CCN(C)CC3)cc2)cc1 (single isomer, unassigned)
ΔTm (Quadruplex DNA [1]): 12.4 °C

SMILES: COc1ccc(-n2c(-c3ccc4c(c3)c3ccccc3n4Cc3cn([C@@H]4O[C@H](COC(C)=O)[C@H](OC(C)=O)[C@H](OC(C)=O)[C@H]4OC(C)=O)nn3)nc(-c3ccc(N4CCN(C)CC4)cc3)c2-c2ccc(N3CCN(C)CC3)cc2)cc1 (single isomer, unassigned)
ΔTm (Quadruplex DNA [1]): 13.3 °C

SMILES: CCn1c2ccccc2c2cc(-c3nc(-c4ccc(N5CCN(C)CC5)cc4)c(-c4ccc(N5CCN(C)CC5)cc4)n3CCOC(C)=O)ccc21
ΔTm (Quadruplex DNA [1]): 11.1 °C

SMILES: CCn1c2ccccc2c2cc(-c3nc(-c4ccc(N5CCN(C)CC5)cc4)c(-c4ccc(N5CCN(C)CC5)cc4)n3CCO[C@@H]3O[C@H](COC(C)=O)[C@@H](OC(C)=O)[C@H](OC(C)=O)[C@H]3OC(C)=O)ccc21 (single isomer, unassigned)
ΔTm (Quadruplex DNA [1]): 7.1 °C

SMILES: CCn1c2ccccc2c2cc(-c3nc(-c4ccc(N5CCN(C)CC5)cc4)c(-c4ccc(N5CCN(C)CC5)cc4)n3-c3ccc(OCCCO[C@@H]4O[C@H](COC(C)=O)[C@@H](OC(C)=O)[C@H](OC(C)=O)[C@H]4OC(C)=O)cc3)ccc21 (single isomer, unassigned)
ΔTm (Quadruplex DNA [1]): 13.7 °C

SMILES: COc1ccc(-n2c(-c3ccc4c(c3)c3ccccc3n4Cc3cn([C@@H]4O[C@H](COC(C)=O)[C@@H](OC(C)=O)[C@H](OC(C)=O)[C@H]4OC(C)=O)nn3)nc(-c3ccc(N4CCN(C)CC4)cc3)c2-c2ccc(N3CCN(C)CC3)cc2)cc1
ΔTm (Quadruplex DNA [1]): 13.4 °C

Second part, the compound after the results:

ΔTm (Quadruplex DNA [1]): 14.2 °C
SMILES: CCn1c2ccccc2c2cc(-c3nc(-c4ccc(N5CCN(C)CC5)cc4)c(-c4ccc(N5CCN(C)CC5)cc4)n3-c3ccc(OCCOCCO[C@@H]4O[C@H](COC(C)=O)[C@@H](OC(C)=O)[C@H](OC(C)=O)[C@H]4OC(C)=O)cc3)ccc21 (single isomer, unassigned)

Kd (RNA): > 20 µM
Kd (Quadruplex DNA [2]): > 20 µM
Kd [3]: > 20 µM
Kd [4]: 12.9 µM
Kd [5]: 13.7 µM
ΔTm (Quadruplex DNA [1]): 16.3 °C
Kd (Quadruplex DNA [6]): 3.5 µM
Kd [7]: > 20 µM
Kd [8]: > 20 µM
SMILES: CCn1c2ccccc2c2cc(-c3nc(-c4ccc(N5CCN(C)CC5)cc4)c(-c4ccc(N5CCN(C)CC5)cc4)n3CCOCCO[C@@H]3O[C@H](CO)[C@@H](O)[C@H](O)[C@H]3O)ccc21 (single isomer, unassigned)

Kd (RNA): > 20 µM
Kd (Quadruplex DNA [2]): > 20 µM
Kd [3]: > 20 µM
Kd [4]: 7 µM
Kd [5]: 3.3 µM
ΔTm (Quadruplex DNA [1]): 15.8 °C
Kd (Quadruplex DNA [6]): 1.9 µM
Kd [7]: > 20 µM
Kd [8]: 11.8 µM
SMILES: CCn1c2ccccc2c2cc(-c3nc(-c4ccc(N5CCN(C)CC5)cc4)c(-c4ccc(N5CCN(Cc6cn([C@@H]7O[C@H](CO)[C@@H](O)[C@H](O)[C@H]7O)nn6)CC5)cc4)[nH]3)ccc21 (single isomer, unassigned)

Kd (RNA): > 20 µM
Kd (Quadruplex DNA [2]): > 20 µM
Kd [3]: > 20 µM
Kd [4]: 2.3 µM
Kd [5]: 2.3 µM
ΔTm (Quadruplex DNA [1]): 21.7 °C
Kd (Quadruplex DNA [6]): 0.8 µM
Kd [7]: > 20 µM
Kd [8]: 5.8 µM
SMILES: CCn1c2ccccc2c2cc(-c3nc(-c4ccc(N5CCN(C)CC5)cc4)c(-c4ccc(N5CCN(C)CC5)cc4)n3-c3ccc(OCCOCCO[C@@H]4O[C@H](CO)[C@@H](O)[C@H](O)[C@H]4N)cc3)ccc21 (single isomer, unassigned)

ΔTm (Quadruplex DNA [1]): 13.4 °C
SMILES: COc1ccc(-n2c(-c3ccc4c(c3)c3ccccc3n4Cc3cn(CCOCCO)nn3)nc(-c3ccc(N4CCN(C)CC4)cc3)c2-c2ccc(N3CCN(C)CC3)cc2)cc1

ΔTm (Quadruplex DNA [1]): 15.1 °C
SMILES: CCn1c2ccccc2c2cc(-c3nc(-c4ccc(N5CCN(C)CC5)cc4)c(-c4ccc(N5CCN(Cc6cn([C@@H]7O[C@H](COC(C)=O)[C@H](OC(C)=O)[C@H](OC(C)=O)[C@H]7OC(C)=O)nn6)CC5)cc4)[nH]3)ccc21 (single isomer, unassigned)

ΔTm (Quadruplex DNA [1]): 10.3 °C
SMILES: CCn1c2ccccc2c2cc(-c3nc(-c4ccc(N5CCN(C)CC5)cc4)c(-c4ccc(N5CCN(C)CC5)cc4)n3CCOCCO[C@@H]3O[C@H](COC(C)=O)[C@H](OC(C)=O)[C@H](OC(C)=O)[C@H]3OC(C)=O)ccc21 (single isomer, unassigned)

ΔTm (Quadruplex DNA [1]): 11.6 °C
SMILES: CCn1c2ccccc2c2cc(-c3nc(-c4ccc(N5CCN(C)CC5)cc4)c(-c4ccc(N5CCN(C)CC5)cc4)n3CCOCCO)ccc21

ΔTm (Quadruplex DNA [1]): 11.4 °C
SMILES: CCn1c2ccccc2c2cc(-c3nc(-c4ccc(N5CCN(C)CC5)cc4)c(-c4ccc(N5CCN(C)CC5)cc4)n3CCOCCO[C@@H]3O[C@H](COC(C)=O)[C@@H](OC(C)=O)[C@H](OC(C)=O)[C@H]3OC(C)=O)ccc21 (single isomer, unassigned)

ΔTm (Quadruplex DNA [1]): 14.6 °C
SMILES: CCn1c2ccccc2c2cc(-c3nc(-c4ccc(N5CCN(C)CC5)cc4)c(-c4ccc(N5CCN(C)CC5)cc4)n3-c3ccc(OCCCOC4(C)O[C@H]5O[C@H](CO)[C@@H](O)[C@H](O)[C@H]5O4)cc3)ccc21 (single isomer, unassigned)

ΔTm (Quadruplex DNA [1]): 11.3 °C
SMILES: CCn1c2ccccc2c2cc(-c3nc(-c4ccc(N5CCN(C)CC5)cc4)c(-c4ccc(N5CCN(C)CC5)cc4)n3CCO[C@@H]3O[C@H](CO)[C@H](O)[C@H](O)[C@H]3O)ccc21 (single isomer, unassigned)

ΔTm (Quadruplex DNA [1]): 6.8 °C
SMILES: CCn1c2ccccc2c2cc(-c3nc(-c4ccc(N5CCN(C)CC5)cc4)c(-c4ccc(N5CCN(C)CC5)cc4)n3-c3ccc(OCCCOC(C)=O)cc3)ccc21

ΔTm (Quadruplex DNA [1]): 7.6 °C
SMILES: CCn1c2ccccc2c2cc(-c3nc(-c4ccc(N5CCN(C)CC5)cc4)c(-c4ccc(N5CCN(C)CC5)cc4)n3-c3ccc(OCc4ccccc4)cc3)ccc21

ΔTm (Quadruplex DNA [1]): 15.4 °C
SMILES: CCn1c2ccccc2c2cc(-c3nc(-c4ccc(N5CCN(C)CC5)cc4)c(-c4ccc(N5CCN(Cc6cn([C@@H]7O[C@H](COC(C)=O)[C@@H](OC(C)=O)[C@H](OC(C)=O)[C@H]7OC(C)=O)nn6)CC5)cc4)[nH]3)ccc21 (single isomer, unassigned)
